Measurements reported in patent US6737383B1, “Herbicidal oxadiazolidines” (priority 1999, dated 2004).

Key:
itchgrass = assay: Test D itchgrass; type: in vivo, Rottboellia exaltata; conditions: Postemergence, 0 to 100 scale
bermuda-grass = assay: Test D bermudagrass; type: in vivo, Cynodon dactylon; conditions: Postemergence, 0 to 100 scale
large crabgrass = assay: Test D large crabgrass; type: in vivo, Digitaria sanguinalis; conditions: Postemergence, 0 to 100 scale
surinam grass = assay: Test D surinam grass; type: in vivo, Brachiaria decumbens; conditions: Postemergence, 0 to 100 scale
sandbur = assay: Test D sandbur; type: in vivo, Cenchrus echinatus; conditions: Postemergence, 0 to 100 scale
Green foxtail [1] = assay: Test D green foxtail; type: in vivo; conditions: Rate 250 g/ha; Postemergence; 0 to 100 scale
Alexandergrass = assay: Test D Alexandergrass; type: in vivo, Brachiaria plantaginea; conditions: Postemergence, 0 to 100 scale
Green foxtail [2] = assay: Test D green foxtail; type: in vivo; conditions: Postemergence, 0 to 100 scale, 0 no injury, 100 complete control
common pursiane = assay: Test D common purslane; type: in vivo, Portulaca oleracea; conditions: Postemergence, 0 to 100 scale
guineagrass = assay: Test D guineagrass; type: in vivo, Panicum maximum; conditions: Postemergence, 0 to 100 scale
Green foxtail [3] = assay: Test D green foxtail; type: in vivo; conditions: Postemergence, 0 to 100 scale, 0 no injury, 100 complete control; remark: listed apart in the source
Green foxtail [4] = assay: Test D green foxtail; type: in vivo; conditions: Postemergence, 0 to 100 scale, 0 no injury, 100 complete control; remark: listed apart in the source
goosegrass = assay: Test D goosegrass; type: in vivo, Eleusine indica; conditions: Postemergence, 0 to 100 scale
[5] = Rate 16 g/ha, 0 no injury, 100 complete control
[6] = Rate 32 g/ha, 0 no injury, 100 complete control
[7] = Rate 64 g/ha, 0 no injury, 100 complete control
[8] = Rate 125 g/ha, 0 no injury, 100 complete control

CC(C)N(C(=O)n1oc(=O)n(C2CC2)c1=O)c1ccccc1 [Compound 243]
Plant response rating, Itchgrass (itchgrass; [5]): 0
Plant response rating, Itchgrass (itchgrass; [6]): 0
Plant response rating, Itchgrass (itchgrass; [7]): 0
Plant response rating, Itchgrass (itchgrass; [8]): 10
Plant response rating, Itchgrass (itchgrass; Rate 250 g/ha): 100
Plant response rating, Bermudagrass (bermuda-grass; [5]): 20
Plant response rating, Bermudagrass (bermuda-grass; [6]): 60
Plant response rating, Bermudagrass (bermuda-grass; [7]): 100
Plant response rating, Bermudagrass (bermuda-grass; [8]): 100
Plant response rating, Bermudagrass (bermuda-grass; Rate 250 g/ha): 100
Plant response rating Large crabgrass (large crabgrass; [5]): 0
Plant response rating Large crabgrass (large crabgrass; [6]): 70
Plant response rating Large crabgrass (large crabgrass; [7]): 100
Plant response rating Large crabgrass (large crabgrass; [8]): 100
Plant response rating Large crabgrass (large crabgrass; Rate 250 g/ha): 100
Plant response rating, Surinam grass (surinam grass; [5]): 0
Plant response rating, Surinam grass (surinam grass; [6]): 20
Surinam grass plant response rating (surinam grass; [7]): 90
Surinam grass plant response rating (surinam grass; [8]): 100
Plant response rating, Surinam grass (surinam grass; Rate 250 g/ha): 100
Plant response rating, Sandbur (sandbur; [5]): 10
Plant response rating, Sandbur (sandbur; [6]): 20
Sandbur plant response rating (sandbur; [7]): 30
Sandbur plant response rating (sandbur; [8]): 30
Plant response rating, Sandbur (sandbur; Rate 250 g/ha): 100
Plant response rating, Green foxtail (Green foxtail [1]): 100
Plant response rating, Alexandergrass (Alexandergrass; [5]): 0
Plant response rating, Alexandergrass (Alexandergrass; [6]): 0
Plant response rating, Alexandergrass (Alexandergrass; [7]): 20
Plant response rating, Alexandergrass (Alexandergrass; [8]): 100
Plant response rating, Alexandergrass (Alexandergrass; Rate 250 g/ha): 100
Plant response rating, Green foxtail (Green foxtail [2]; Rate 16 g/ha): 10
Plant response rating, Green foxtail (Green foxtail [2]; Rate 32 g/ha): 100
Plant response rating, C. purslane (common pursiane; [5]): 0
Plant response rating, C. purslane (common pursiane; [6]): 0
Plant response rating, C. purslane (common pursiane; [7]): 0
Plant response rating, C. purslane (common pursiane; [8]): 0
Plant response rating, C. purslane (common pursiane; Rate 250 g/ha): 0
Plant response rating, Guineagrass (guineagrass; [5]): 0
Plant response rating, Guineagrass (guineagrass; [6]): 0
Guineagrass plant response rating (guineagrass; [7]): 0
Plant response rating, Guineagrass (guineagrass; [7]): 20
Plant response rating, Guineagrass (guineagrass; [8]): 100
Plant response rating, Guineagrass (guineagrass; Rate 250 g/ha): 100
Plant response rating, Green foxtail (Green foxtail [3]; Rate 64 g/ha): 100
Plant response rating, Green foxtail (Green foxtail [3]; Rate 125 g/ha): 100
Plant response rating, Green foxtail (Green foxtail [4]; Rate 16 g/ha): 10
Plant response rating, Green foxtail (Green foxtail [4]; Rate 32 g/ha): 100
Plant response rating, Goosegrass (goosegrass; [5]): 70
Plant response rating, Goosegrass (goosegrass; [6]): 80
Plant response rating, Goosegrass (goosegrass; [7]): 100
Plant response rating, Goosegrass (goosegrass; [8]): 100
Plant response rating, Goosegrass (goosegrass; Rate 250 g/ha): 100

COCC(C)n1c(=O)on(C(=O)N(c2ccc(F)cc2F)C(C)C)c1=O (centres unmarked) [Compound 352]
Plant response rating, Itchgrass (itchgrass; [5]): 0
Plant response rating, Itchgrass (itchgrass; [6]): 0
Plant response rating, Itchgrass (itchgrass; [7]): 0
Plant response rating, Itchgrass (itchgrass; [8]): 20
Plant response rating, Itchgrass (itchgrass; Rate 250 g/ha): 60
Plant response rating, Bermudagrass (bermuda-grass; [5]): 0
Plant response rating, Bermudagrass (bermuda-grass; [6]): 80
Plant response rating, Bermudagrass (bermuda-grass; [7]): 100
Plant response rating, Bermudagrass (bermuda-grass; [8]): 100
Plant response rating, Bermudagrass (bermuda-grass; Rate 250 g/ha): 100
Plant response rating Large crabgrass (large crabgrass; [5]): 0
Plant response rating Large crabgrass (large crabgrass; [6]): 100
Plant response rating Large crabgrass (large crabgrass; [7]): 100
Plant response rating Large crabgrass (large crabgrass; [8]): 100
Plant response rating Large crabgrass (large crabgrass; Rate 250 g/ha): 100
Plant response rating, Surinam grass (surinam grass; [5]): 0
Plant response rating, Surinam grass (surinam grass; [6]): 0
Surinam grass plant response rating (surinam grass; [7]): 30
Surinam grass plant response rating (surinam grass; [8]): 70
Plant response rating, Surinam grass (surinam grass; Rate 250 g/ha): 100
Plant response rating, Sandbur (sandbur; [5]): 0
Plant response rating, Sandbur (sandbur; [6]): 90
Sandbur plant response rating (sandbur; [7]): 70
Sandbur plant response rating (sandbur; [8]): 100
Plant response rating, Sandbur (sandbur; Rate 250 g/ha): 100
Plant response rating, Green foxtail (Green foxtail [1]): 100
Plant response rating, Alexandergrass (Alexandergrass; [5]): 0
Plant response rating, Alexandergrass (Alexandergrass; [6]): 60
Plant response rating, Alexandergrass (Alexandergrass; [7]): 80
Plant response rating, Alexandergrass (Alexandergrass; [8]): 100
Plant response rating, Alexandergrass (Alexandergrass; Rate 250 g/ha): 100
Plant response rating, Green foxtail (Green foxtail [2]; Rate 16 g/ha): 0
Plant response rating, Green foxtail (Green foxtail [2]; Rate 32 g/ha): 100
Plant response rating, C. purslane (common pursiane; [5]): 0
Plant response rating, C. purslane (common pursiane; [6]): 0
Plant response rating, C. purslane (common pursiane; [7]): 0
Plant response rating, C. purslane (common pursiane; [8]): 0
Plant response rating, C. purslane (common pursiane; Rate 250 g/ha): 0
Plant response rating, Guineagrass (guineagrass; [5]): 0
Plant response rating, Guineagrass (guineagrass; [6]): 0
Guineagrass plant response rating (guineagrass; [7]): 20
Plant response rating, Guineagrass (guineagrass; [7]): 60
Plant response rating, Guineagrass (guineagrass; [8]): 80
Plant response rating, Guineagrass (guineagrass; Rate 250 g/ha): 100
Plant response rating, Green foxtail (Green foxtail [3]; Rate 64 g/ha): 100
Plant response rating, Green foxtail (Green foxtail [3]; Rate 125 g/ha): 100
Plant response rating, Green foxtail (Green foxtail [4]; Rate 16 g/ha): 0
Plant response rating, Green foxtail (Green foxtail [4]; Rate 32 g/ha): 100
Plant response rating, Goosegrass (goosegrass; [5]): 0
Plant response rating, Goosegrass (goosegrass; [6]): 90
Plant response rating, Goosegrass (goosegrass; [7]): 100
Plant response rating, Goosegrass (goosegrass; [8]): 100
Plant response rating, Goosegrass (goosegrass; Rate 250 g/ha): 100

CC(C)N(C(=O)n1oc(=O)n(C2(C)CC2)c1=O)c1ccccc1 [Compound 360]
Plant response rating, Itchgrass (itchgrass; [5]): 0
Plant response rating, Itchgrass (itchgrass; [6]): 0
Plant response rating, Itchgrass (itchgrass; [7]): 0
Plant response rating, Itchgrass (itchgrass; [8]): 20
Plant response rating, Itchgrass (itchgrass; Rate 250 g/ha): 30
Plant response rating, Bermudagrass (bermuda-grass; [5]): 0
Plant response rating, Bermudagrass (bermuda-grass; [6]): 100
Plant response rating, Bermudagrass (bermuda-grass; [7]): 100
Plant response rating, Bermudagrass (bermuda-grass; [8]): 100
Plant response rating, Bermudagrass (bermuda-grass; Rate 250 g/ha): 100
Plant response rating Large crabgrass (large crabgrass; [5]): 0
Plant response rating Large crabgrass (large crabgrass; [6]): 80
Plant response rating Large crabgrass (large crabgrass; [7]): 100
Plant response rating Large crabgrass (large crabgrass; [8]): 100
Plant response rating Large crabgrass (large crabgrass; Rate 250 g/ha): 100
Plant response rating, Surinam grass (surinam grass; [5]): 0
Plant response rating, Surinam grass (surinam grass; [6]): 0
Surinam grass plant response rating (surinam grass; [7]): 100
Surinam grass plant response rating (surinam grass; [8]): 90
Plant response rating, Surinam grass (surinam grass; Rate 250 g/ha): 100
Plant response rating, Sandbur (sandbur; [5]): 0
Plant response rating, Sandbur (sandbur; [6]): 90
Sandbur plant response rating (sandbur; [7]): 50
Sandbur plant response rating (sandbur; [8]): 100
Plant response rating, Sandbur (sandbur; Rate 250 g/ha): 100
Plant response rating, Green foxtail (Green foxtail [1]): 100
Plant response rating, Alexandergrass (Alexandergrass; [5]): 20
Plant response rating, Alexandergrass (Alexandergrass; [6]): 60
Plant response rating, Alexandergrass (Alexandergrass; [7]): 50
Plant response rating, Alexandergrass (Alexandergrass; [8]): 100
Plant response rating, Alexandergrass (Alexandergrass; Rate 250 g/ha): 100
Plant response rating, Green foxtail (Green foxtail [2]; Rate 16 g/ha): 0
Plant response rating, Green foxtail (Green foxtail [2]; Rate 32 g/ha): 70
Plant response rating, C. purslane (common pursiane; [5]): 0
Plant response rating, C. purslane (common pursiane; [6]): 0
Plant response rating, C. purslane (common pursiane; [7]): 0
Plant response rating, C. purslane (common pursiane; [8]): 0
Plant response rating, C. purslane (common pursiane; Rate 250 g/ha): 0
Plant response rating, Guineagrass (guineagrass; [5]): 0
Plant response rating, Guineagrass (guineagrass; [6]): 100
Guineagrass plant response rating (guineagrass; [7]): 100
Plant response rating, Guineagrass (guineagrass; [8]): 100
Plant response rating, Guineagrass (guineagrass; Rate 250 g/ha): 100
Plant response rating, Green foxtail (Green foxtail [3]; Rate 64 g/ha): 100
Plant response rating, Green foxtail (Green foxtail [3]; Rate 125 g/ha): 100
Plant response rating, Green foxtail (Green foxtail [4]; Rate 16 g/ha): 0
Plant response rating, Green foxtail (Green foxtail [4]; Rate 32 g/ha): 70
Plant response rating, Goosegrass (goosegrass; [5]): 20
Plant response rating, Goosegrass (goosegrass; [6]): 100
Plant response rating, Goosegrass (goosegrass; [7]): 100
Plant response rating, Goosegrass (goosegrass; [8]): 100
Plant response rating, Goosegrass (goosegrass; Rate 250 g/ha): 100
